Earlier results as cited in US7816298B2, “Hydroconversion processes employing multi-metallic catalysts and method for making thereof” (Chevron U. S. A. Inc., priority 2007, dated 2010).

Test system: rats
Conditions: as single oral dose to rats; values quoted for chelating agents (ligand L)

For `O=CC(=O)O` [glyoxylic], which LD50 is on record?
The LD50 was 3000 mg/kg.
